The results in this text go back to publication PMC10635799, “Analogs of FTY720 inhibit TRPM7 but not S1PRs and exert multimodal anti-inflammatory effects” (The Journal of General Physiology, 2023).

One data set has as its system BV-2 microglia. Nature of the data set: LPS-induced cytokine expression in BV-2 microglia (qRT-PCR). Format: cell-based, mouse. The following applies: 10 µM pretreatment, LPS 1 µg/ml for 3 h. The protocol: RAW 264.7 macrophages or BMDMs were seeded at a density of 250,000 cells per well into a 12-well tissue culture plate in 1 ml of media and left to incubate overnight. The indicated drug or vehicle control was added to each well, and the plate was agitated and left to incubate for 10 min. The cells were then treated with LPS (1 μg/ml) or an equivalent volume of PBS, agitated, and left to incubate for 3 h. Cells were washed with PBS and then RNA isolation was performed using RNeasy Plus Micro Kit (74134; Qiagen). cDNA was produced using GoScript Reverse Transcriptase ([…]; Promega) and a quantitative PCR was performed using SensiFast SYBR (98020; Bioline) and Bio-Rad CFX Connect thermocycler. Each datum represents an individual, biological replicate that is the mean of duplicate technical replicates. Fold-changes are all reported relative to untreated controls for each experiment and were calculated using the ΔΔCt method, with β2-microglobulin used as the housekeeping gene for each sample. The experiment was performed similarly with BV-2 microglia and alveolar macrophages, except that cells were plated at a density of 100,000 cells per well into a 24-well tissue culture plate with 1 ml of media per well.

For the next data set, the target named is T1, mouse TRPM7 (Mus musculus, UniProt Q923J1).
T1 construct: expressed in transfected cells; host or cells: HEK 293T cells (CRL-3216; ATCC), transient transfection with jetOPTIMUS, co-transfected eGFP as a separate plasmid
Nature of the data set: Whole-cell patch clamp of TRPM7 current (IM7) in HEK 293T cells overexpressing mouse TRPM7. Format: cell-based. As for the experimental part:
To overexpress TRPM7, HEK 293T cells were plated at a density of 500,000 cells per well (day 0), transfected at 80–90% confluency (day 1), and were patched 24–36 h after transfection (day 2). TRPM7 overexpression was performed using WT mouse TRPM7 (2.5 µg plasmid DNA; [Desai et al., 2012]) and jetOPTIMUS DNA Transfection Reagent (101000006; Polyplus). To enhance the selection rate of TRPM7-overexpressing cells, eGFP (#22152; Addgene) was included at a 1:10 dilution (0.25 µg) and only GFP-positive cells were patched.
Whole-cell patch clamp electrophysiology was performed as described previously ([Schappe et al., 2022]). Briefly, the external solution contained (in mM) 140 Na-methanesulfonate, 5 Cs-gluconate, 2.5 CaCl2, and 10 HEPES, pH 7.4 (adjusted with NaOH), at an osmolality of 280–290 mOsm/kg. The internal pipette solution contained (in mM) 115 Cs-gluconate, 3 NaCl, 0.75 CaCl2, 10 HEPES, 10 HEDTA, 1.8 Cs4-BAPTA, and 2 Na2ATP, pH 7.3 (adjusted with CsOH), at an osmolality of 273 mOsm/kg. Intracellular free [Ca^2+] was estimated to be ∼100 nM using the online WEBMAXC standard calculator at https://somapp.ucdmc.ucdavis.edu/pharmacology/bers/maxchelator/webmaxc/webmaxcS.htm ([Bers et al., 2010]). Recordings were captured in pCLAMP 9 (Molecular Devices) using a 400-ms ramp protocol from −100 to +100 mV and a holding potential of 0 mV. Sampling was performed at 10 kHz with a 5 kHz low-pass band filter using an Axopatch 200B amplifier (Molecular Devices). All electrophysiology experiments were conducted at RT (∼23°C). […] Similarly, the minimum current for each inhibitor dose is taken as the stable minimum current observed after the drug has had time to exert an effect and after the flow-driven transient increase has subsided.
Data were analyzed using Microsoft Excel, Prism 9.5 (GraphPad Software), and Origin Pro 7.5 (OriginLab). Chemical structures were created using ChemDraw Professional 20.1.1 (PerkinElmer). Electrophysiology traces were plotted using Origin Pro 7.5, and the remaining data were plotted and statistically tested using Prism. Outliers were determined using the robust regression and outlier removal (ROUT) function within Prism. IC50 values were determined by plotting the percentage of maximum current observed as a function of applied drug concentration. A non-linear regression was fit using a standard Hill slope of −1.0 and the model: Y=100/[1+([Inhibitor]/IC50)]. Where appropriate, data are presented as individual values; otherwise the sample sizes and precision measures are indicated in the figure legends. P values of <0.05 were considered statistically significant.

The test system of data set [1] is LPS-induced endotoxemia in mice. Put plainly: Sublethal LPS-induced peritonitis (endotoxemia) mouse model. The class given is in vivo. The protocol:
12-wk-old WT C57BL/6J mice were purchased from Jackson Laboratory (Strain #000664). An equal number of male and female mice were randomly assigned to each treatment group. All studies were conducted according to a protocol approved by the University of Virginia Animal Care and Use Committee. Mice were socially housed with littermate controls and provided with free access to a standard chow diet and water. Baseline weights were taken <1 h prior to the experiment for individual dose calculations. For the sublethal model, mice were injected intraperitoneally with LPS (1 mg/kg), VPC01091.4 (30 mg/kg), both LPS and VPC01091.4, or vehicle alone (20% 2-hydroxypropyl-β-cyclodextrin in PBS). The volume injected was 200 μl and solutions were sterile-filtered (0.45 µm) prior to use. […] Mice were euthanized at 4 h, then blood was collected via cardiac puncture and anticoagulated with K2EDTA. […] The lungs were dissected, coarsely homogenized, and partitioned into separate samples for RNA extraction and mass spectrometry analysis. Samples to be used for RNA were stored at −20°C in RNAlater Stabilization Solution (AM7021; Thermo Fisher Scientific) while samples for use in mass spectrometry were flash-frozen in liquid nitrogen. Whole brains were physically dissected, coarsely homogenized, and stored for later processing as with the lung tissue. 10 μl of each whole blood sample was reserved for mass spectrometry analysis, 15 μl was used to obtain lymphocyte counts with a Hematology Analyzer (Heska Element HT5), and the remainder was used to produce plasma through centrifugation at 2,000 × g for 15 min at 4°C. Plasma cytokines were then measured using a multiplex mouse proinflammatory cytokine panel performed by the University of Virginia Flow Cytometry Core (RRID: SCR_017829). Cytokine values beyond the limit of detection (LOD) are reported as the LOD value. Tissue RNA was isolated from preserved samples using 30 min of automated homogenization at 30 Hz with 5-mm ball-bearings in RLT Plus Lysis Buffer (TissueLyser II; Qiagen); RNA was then isolated using a RNeasy Plus Micro Kit (74134; Qiagen). Whole-tissue cytokine expression changes were then measured using qRT-PCR as with ex vivo cell culture experiments. For the lethal dose model, mice were injected with LPS (25 mg/kg), both LPS and VPC01091.4, or vehicle alone (20% 2-hydroxypropyl-β-cyclodextrin in PBS). Symptoms were scored according to a standardized clinical score sheet that assessed conjunctivitis, lethargy, degradation in hair grooming behavior, stool changes, and facial grimace (Table 1). Mice that lost >20% of their starting body weight or received a clinical score of 8 or greater were euthanized.

Where [2] appears, read: LPS 1 mg/kg + 30 mg/kg i.p., 4 h, vs LPS.
The mark [3] stands for this setting: whole-brain qRT-PCR, LPS 1 mg/kg + 30 mg/kg i.p., 4 h, vs LPS.

T1 sequence (Q923J1 whole entry): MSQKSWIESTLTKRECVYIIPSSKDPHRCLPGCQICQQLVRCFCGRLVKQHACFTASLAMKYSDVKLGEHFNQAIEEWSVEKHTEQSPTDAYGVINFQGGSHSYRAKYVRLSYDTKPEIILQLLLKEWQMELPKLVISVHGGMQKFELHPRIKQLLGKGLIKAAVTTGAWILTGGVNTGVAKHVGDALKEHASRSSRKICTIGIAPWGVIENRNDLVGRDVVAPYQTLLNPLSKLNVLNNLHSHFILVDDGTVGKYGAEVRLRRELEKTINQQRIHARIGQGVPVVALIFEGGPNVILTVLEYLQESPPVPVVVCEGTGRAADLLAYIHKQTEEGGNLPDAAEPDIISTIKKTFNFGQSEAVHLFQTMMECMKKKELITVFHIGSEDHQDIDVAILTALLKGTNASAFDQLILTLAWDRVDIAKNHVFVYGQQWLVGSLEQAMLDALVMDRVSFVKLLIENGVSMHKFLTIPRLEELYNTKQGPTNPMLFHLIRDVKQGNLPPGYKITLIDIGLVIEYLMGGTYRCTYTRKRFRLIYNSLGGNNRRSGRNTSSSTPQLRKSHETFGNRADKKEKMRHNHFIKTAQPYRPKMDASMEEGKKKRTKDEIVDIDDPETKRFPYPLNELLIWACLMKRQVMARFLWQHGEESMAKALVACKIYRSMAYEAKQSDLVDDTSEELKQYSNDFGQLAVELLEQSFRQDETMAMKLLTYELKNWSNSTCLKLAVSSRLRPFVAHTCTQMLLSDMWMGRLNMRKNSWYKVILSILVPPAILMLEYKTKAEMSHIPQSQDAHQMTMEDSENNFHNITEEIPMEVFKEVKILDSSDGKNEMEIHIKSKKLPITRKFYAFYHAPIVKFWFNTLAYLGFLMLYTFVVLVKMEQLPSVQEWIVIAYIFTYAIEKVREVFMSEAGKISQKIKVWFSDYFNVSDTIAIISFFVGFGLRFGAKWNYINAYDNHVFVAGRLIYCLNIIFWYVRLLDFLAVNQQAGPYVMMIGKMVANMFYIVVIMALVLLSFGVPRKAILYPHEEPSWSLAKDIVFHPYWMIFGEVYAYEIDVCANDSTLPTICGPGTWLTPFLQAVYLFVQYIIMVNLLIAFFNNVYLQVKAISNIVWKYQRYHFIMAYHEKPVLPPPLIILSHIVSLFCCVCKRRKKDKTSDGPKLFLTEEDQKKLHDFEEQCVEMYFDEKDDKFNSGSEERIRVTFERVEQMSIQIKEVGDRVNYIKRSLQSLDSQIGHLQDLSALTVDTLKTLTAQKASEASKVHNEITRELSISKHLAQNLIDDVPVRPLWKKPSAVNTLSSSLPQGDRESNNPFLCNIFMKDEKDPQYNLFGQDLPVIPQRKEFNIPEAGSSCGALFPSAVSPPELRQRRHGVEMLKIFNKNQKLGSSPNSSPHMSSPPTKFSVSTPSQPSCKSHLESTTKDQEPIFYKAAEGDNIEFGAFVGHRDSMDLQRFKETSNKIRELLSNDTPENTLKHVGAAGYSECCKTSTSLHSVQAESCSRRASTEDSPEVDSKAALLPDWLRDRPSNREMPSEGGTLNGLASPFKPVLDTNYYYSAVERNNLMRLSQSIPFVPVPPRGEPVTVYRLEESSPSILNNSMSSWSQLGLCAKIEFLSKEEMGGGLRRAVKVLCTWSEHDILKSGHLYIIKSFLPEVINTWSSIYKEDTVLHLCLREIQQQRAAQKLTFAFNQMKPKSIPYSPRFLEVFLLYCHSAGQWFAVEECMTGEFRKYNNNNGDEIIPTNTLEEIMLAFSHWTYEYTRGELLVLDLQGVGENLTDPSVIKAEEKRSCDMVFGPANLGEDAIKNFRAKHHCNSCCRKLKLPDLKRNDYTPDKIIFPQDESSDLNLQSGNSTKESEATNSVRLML

With `CCCCCCCCc1ccc([C@@H]2CC[C@@](N)(CO)C2)cc1` [VPC01091.4, ((1S,3R)-1-amino-3-(4-octylphenyl)cyclopentyl)methanol], the “LPS-induced inflammatory cytokine expression” value in the data set with BV-2 microglia is recorded as “direct anti-inflammatory effects”. The “Effect on whole-cell TRPM7 current (IM7)” value on mouse TRPM7 (5 µM) was “current inhibition”. Also, the half-inhibitory concentration (IC50) on mouse TRPM7 (peak current at +100 mV, HEK 293T overexpressing mouse TRPM7, Hill slope -1.0, read-out: IC50 for inhibition of TRPM7 current (IM7)) was found to be 665 nM. For the same compound, in data set [1] (30 mg/kg i.p.), the Tolerability in mice entry is “well-tolerated”. Besides, in data set [1] (30 mg/kg i.p., 4 h, between treatment groups), the Absolute lymphocyte counts entry is “no significant differences”. Also, the “Plasma IL-10” value in data set [1] (LPS 1 mg/kg + 30 mg/kg i.p., 4 h) was “higher levels”. For the same compound, in data set [1] (setting [2]), the “Plasma IFNγ” value is reported as “significantly suppressed”, the “Plasma IL-1β” value is listed as “significantly suppressed” and the “Plasma TNFα” value is “significantly suppressed”. In data set [1] (setting [3]), the “Brain expression of CCL4” value is “significantly suppressed”, the “Brain expression of IL-1β” value was “significantly suppressed”, the “Brain expression of IL-6” value was “significantly suppressed” and the “Brain expression of TNFα” value is “significantly suppressed”. Further, in data set [1] (whole-lung qRT-PCR, LPS 1 mg/kg + 30 mg/kg i.p., 4 h, vs LPS), the “Lung expression of IL-6” value is given as “non-significantly lower”.
